Assay [1] concerns the target T1, rat diaphorase (Rattus norvegicus, UniProt P05982).
T1 construct: purchased Sigma
T1 sequence (P05982 2-274 limits assumed): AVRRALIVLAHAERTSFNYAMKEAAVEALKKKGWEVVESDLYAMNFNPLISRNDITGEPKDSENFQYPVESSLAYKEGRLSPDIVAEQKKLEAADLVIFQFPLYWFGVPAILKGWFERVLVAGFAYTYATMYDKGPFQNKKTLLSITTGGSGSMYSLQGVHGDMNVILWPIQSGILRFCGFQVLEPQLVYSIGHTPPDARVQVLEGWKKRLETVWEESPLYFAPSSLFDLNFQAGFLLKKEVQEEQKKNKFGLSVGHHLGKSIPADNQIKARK
The format is biochemical. The note with it: for FLUs: 1 u/ml rat diaphorase; for Fluorescence time course, Rat: 10 uM NADH.

Assay [2] concerns Clostridium diaphorase. Nature of the assay: Fluorescent NADH detection assay, Clostridium diaphorase. The format is biochemical. The note with it: for FLUs: 1 u/ml Clostridium diaphorase; for Fluorescence time course, Clostridium: 10 uM NADH. The procedure: Each fluorescent substrate (PBI-4412, 4413, 4440, and 4441) was incubated at 920 μM with 0 μM or 10 μM NADH (Sigma) or a titration of NADH (Table 8) and 1 u/ml rat diaphorase (Sigma) or 1 u/ml Clostridium diaphorase (Sigma) in a volume of 100 μl in 50 mM Tris pH 7.5. Single reactions were prepared in the wells of a 96-well black plate at room temperature. Fluorescence was monitored over the course of two hours at excitation and emission wavelengths of 485 and 527, respectively, using a fluorescence plate reader. […] Table 7 and FIGS. 24a-b show the reaction time course with each substrate with 10 uM NADH. Table 8 and FIG. 25 show the NADH titration at 60 minutes with PBI-4440 and 4412 with rat diaphorase.

Assay [3] concerns HeLa cells. Nature of the assay: Fluorescent imaging of live cells. The class given is cell-based. The note with it: 10 μM substrate. The procedure:
HeLa cells were plated at 40,000 cell/well into wells of an 8-well chambered coverslip and incubated at 37° C.+5% CO2. The media (DMEM) was replaced with warm complete media (with 10% FBS) containing 10 μM PBI-4412, 4413, 4440 or 4441. Cells were then transferred to a confocal microscope for imaging using 10% λ488 nm laser power (4412, 4413, and 4441) or 5% laser power (4440). All images (FIGS. 6a-d) are at 30× magnification.

Assay [4] relates to Jurkat cells. The experiment in a line: Measuring metabolically active cells with quinone coelenterazine derivatives. The class given is cell-based, human. The note with it: Jurkat cell dilutions; 30 minute incubation; Oplophorus luciferase detection reagent. The procedure: Two-fold serial dilutions of Jurkat cells were prepared in PBS, and 50 μl per well transferred to wells in 96-well plates. Compound PBI 4600 and 4601 were diluted in PBS to make 50 μM and 100 μM stocks, respectively. 10 μl of prepared compound stocks were added to the cells, and the cells were placed into 37° C., 5% CO2 incubator. Following a 30 minute incubation, the cells were removed from incubator, cooled at room temperature for 10 minutes, and 50 μl of Oplophorus luciferase detection reagent (Promega Corporation) added directly to the wells. The samples were mixed, incubated at room temperature for 20 minutes, and luminescence measured.

Setting [5] is: 10 μM NADH, 60 min, substrate 920 μM.

Read-outs that look alike come from different tables or passages of the source.

Turning to `CC1=C(C)C(=O)C(C(C)(C)CC(=O)N(C)CCN(C)C(=O)Oc2ccc3c(c2)Oc2cc(OC(=O)N(C)CCN(C)C(=O)CC(C)(C)C4=C(C)C(=O)C(C)=C(C)C4=O)ccc2C32OC(=O)c3ccccc32)=C(C)C1=O` [PBI 4441, Bis-quinone trimethyllock diamine fluorescein], the FLUs is given as 120 FLUs in assay [1] (0 μM NADH, 60 min); 7387 FLUs in assay [1] (setting [5]); 314 FLUs in assay [2] (0 μM NADH, 60 min); 2570 FLUs in assay [2] (setting [5]). The “Fluorescence time course, Rat” value in assay [1] (2 min) is 302 FLUs; in assay [1] (4 min), 608 FLUs; in assay [1] (5 min), 827 FLUs; in assay [1] (10 min) it was 1961 FLUs; in assay [1] (20 min), 3454 FLUs; in assay [1] (30 min) it was 4460 FLUs. In addition, the “Fluorescence time course, Rat” value in assay [1] (40 min) was 5442 FLUs; in assay [1] (50 min) it was 6457 FLUs; in assay [1] (60 min) it was 7387 FLUs; in assay [1] (70 min) it was 8891 FLUs; in assay [1] (80 min) it was 9545 FLUs; in assay [1] (90 min), 9915 FLUs. The “Fluorescence time course, Rat” value is 10496 FLUs in assay [1] (100 min), 10736 FLUs in assay [1] (110 min) and 11149 FLUs in assay [1] (120 min). Further, the “Fluorescence time course, Clostridium” value turned out to be 354 FLUs in assay [2] (2 min); 481 FLUs in assay [2] (4 min); 576 FLUs in assay [2] (5 min); 1152 FLUs in assay [2] (10 min); 1974 FLUs in assay [2] (20 min); 2334 FLUs in assay [2] (30 min). Besides, the “Fluorescence time course, Clostridium” value was determined as 2515 FLUs in assay [2] (40 min); 2514 FLUs in assay [2] (50 min); 2570 FLUs in assay [2] (60 min); 2584 FLUs in assay [2] (70 min); 2561 FLUs in assay [2] (80 min); 2539 FLUs in assay [2] (90 min). For the same compound, the “Fluorescence time course, Clostridium” value in assay [2] (100 min) is listed as 2555 FLUs; in assay [2] (110 min), 2515 FLUs; in assay [2] (120 min), 2570 FLUs. Besides, the “reduction of substrate in live cells (confocal images)” value in assay [3] is given as “only reduced once inside cells”.
Regarding `CC1=C(C)C(=O)C(C(C)(C)CC(=O)N(C)CCN(C)C(=O)Oc2c(Cc3ccco3)nc3c(Cc4ccccc4)nc(-c4ccccc4)cn23)=C(C)C1=O` [PBI 4600], the “relationship of luminescence to cell number” value in assay [4] is “linear correlation between cell number and luminescence”.
For `CC1=C(C)C(=O)C(C(C)(C)CC(=O)N(C)CCN(C)C(=O)Oc2c(Cc3ccccc3)nc3c(Cc4ccccc4)nc(-c4ccccc4)cn23)=C(C)C1=O` [PBI 4601], the “relationship of luminescence to cell number” value in assay [4] is “linear correlation between cell number and luminescence”.
Turning to `CC1=CC(=O)C(C)=C(C(C)(C)CC(=O)N(C)CCN(C)C(=O)Oc2ccc3c(c2)Oc2cc(OC(=O)N(C)CCN(C)C(=O)CC(C)(C)C4=C(C)C(=O)C=C(C)C4=O)ccc2C32OC(=O)c3ccccc32)C1=O` [PBI 4413, Bis-quinone trimethyllock diamine fluorescein], the FLUs in assay [1] (0 μM NADH, 60 min) was 39 FLUs; in assay [1] (setting [5]), 7397 FLUs; in assay [2] (0 μM NADH, 60 min), 255 FLUs; in assay [2] (setting [5]) it was 2517 FLUs. Besides, the “Fluorescence time course, Rat” value is 180 FLUs in assay [1] (2 min); 419 FLUs in assay [1] (4 min); 545 FLUs in assay [1] (5 min); 1091 FLUs in assay [1] (10 min); 2151 FLUs in assay [1] (20 min); 3407 FLUs in assay [1] (30 min). Besides, the “Fluorescence time course, Rat” value in assay [1] (40 min) is given as 4669 FLUs; in assay [1] (50 min), 6127 FLUs; in assay [1] (60 min), 7397 FLUs; in assay [1] (70 min), 9925 FLUs; in assay [1] (80 min), 10959 FLUs; in assay [1] (90 min), 12101 FLUs. Further, the figures for the “Fluorescence time course, Rat” value in assay [1] (100 min), in assay [1] (110 min) and in assay [1] (120 min) were 13732 FLUs, 15434 FLUs and 16666 FLUs, respectively. Besides, the “Fluorescence time course, Clostridium” value in assay [2] (2 min) turned out to be 264 FLUs; in assay [2] (4 min) it was 457 FLUs; in assay [2] (5 min) it was 698 FLUs; in assay [2] (10 min) it was 1195 FLUs; in assay [2] (20 min) it was 2167 FLUs; in assay [2] (30 min) it was 2896 FLUs. In addition, the “Fluorescence time course, Clostridium” value in assay [2] (40 min) was 3329 FLUs; in assay [2] (50 min), 3519 FLUs; in assay [2] (60 min), 3664 FLUs; in assay [2] (70 min), 3803 FLUs; in assay [2] (80 min), 3841 FLUs; in assay [2] (90 min), 3798 FLUs. Besides, the “Fluorescence time course, Clostridium” value in assay [2] (100 min) is on record as 3801 FLUs; in assay [2] (110 min) it was 3820 FLUs; in assay [2] (120 min), 3821 FLUs. The “reduction of substrate in live cells (confocal images)” value in assay [3] is “only reduced once inside cells”.

Values taken from patent US9951372B2, “Compounds and methods for assaying redox state of metabolically active cells and methods for measuring NAD(P)/NAD(P)H” (PROMEGA CORPORATION, priority 2011, dated 2018).
